Assay results published in patent EP1137645B1, “ALPHA-METHYLBENZYL-CONTAINING THIOUREA INHIBITORS OF HERPES VIRUSES CONTAINING A […] GROUP” (Wyeth, priority 1998, dated 2000).
≈ marks a conversion by molar mass, not a printed value. Like-named read-outs stand apart in the source and are kept apart here.

Assays:
[1] = test system: HCMV recombinant mutant virus whose genome contains the prokaryotic beta-glucuronidase gene; assay: microbe, parasite or virus in culture; assay type: cell-based, human cytomegalovirus; settings: Human betaherpesvirus 5, Fibroblast
Method in brief: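 Human foreskin fibroblasts infected with HCMV recombinant carrying beta-glucuronidase under a viral promoter (e.g. RV145) in presence of compound. At 96 h post-infection, lysates assayed for beta-glucuronidase by colorimetric or fluorogenic substrate as replication readout; IC50 estimated from varying compound amounts.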

HSV- I = assay: HSV antiviral (ELISA) assay; assay type: cell-based; settings: read-out: IC50 (ug/ml) HSV
Method in brief: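 Vero cells in DMEM with 2% FBS treated with compound 30 min before HSV-1 infection (MOI 0.006), then incubated ~24 h at 37°C. Viral replication measured by ELISA against glycoprotein D with β-galactosidase-linked secondary and fluorogenic substrate (ex 365/em 450 nm); IC50 relative to untreated fluorescence.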

VZV strain Ellen = assay: VZV antiviral (ELISA) assay; assay type: cell-based
Method in brief: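 HFF cells infected with VZV Ellen at multiplicity below 0.1 overnight, then mixed infected/uninfected cells seeded with compound in DMEM/2% FBS and incubated three days at 37°C, 5% CO2.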

[2] = Human alphaherpesvirus 3, read-out: % inhibition 10 ug/ml VZV, 10 ug/ml, VZV strain Ellen, HFF cells, ELISA
[3] = Human alphaherpesvirus 3, VZV strain Ellen, HFF cells, ELISA, read-out: IC50 (ug/ml) VZV
[4] = read-out: IC50 ug/ml HCMV, HCMV, human foreskin fibroblasts
[5] = Human alphaherpesvirus 3, HFF, read-out: IC50 (ug/ml) VZV, VZV strain Ellen, HFF cells, ELISA
[6] = Human alphaherpesvirus 3, HFF, read-out: % inhibition 10 ug/ml VZV
[7] = Human alphaherpesvirus 3, HFF, read-out: IC50 (ug/ml) VZV

Row | SMILES | IC50 ([1]; read-out: IC50 ug/ml HCMV) | IC50 (HSV- I; HSV- I, Vero cells, ELISA) | inhibition at 10 µg/mL (VZV strain Ellen; [2]) | IC50 (VZV strain Ellen; [3]) | IC50 [1, 4] | IC50 (HSV- I; Vero) | IC50 (VZV strain Ellen; [5]) | inhibition at 10 µg/mL (VZV strain Ellen; [6]) | IC50 (VZV strain Ellen; [7])
1 | O=C(Nc1ccc(NC(=S)Nc2ccc3[nH]nnc3c2)cc1)c1c(F)cccc1F [Example 527, N-{4-[3-(1H-Benzotriazol-5-yl)-thioureido]-phenyl}-2,6-difluoro-benzamide] | > 10 µg/mL | > 10 µg/mL | 20% | > 10 µg/mL |  |  |  |  | 
2 | Cc1ccc(C(C)NC(=S)Nc2ccc(NC(=O)c3ccccc3F)cc2)cc1 (stereo not drawn) [Example 782, 2-Fluoro-N-{4-[3-(1-p-tolyl-ethyl)-thioureido]-phenyl}-benzamide] |  |  |  |  | 0.9 µg/mL (≈ 2.21 µM) | > 10 µg/mL | 3 µg/mL (≈ 7.36 µM) |  | 
3 | COc1ccc(NC(=S)Nc2ccc(NC(=O)c3ccccc3F)cc2)cc1C(F)(F)F [Example 998, 2-Fluoro-N-{4-[3-(4-methoxy-3-trifluoromethyl-phenyl)-thioureido]-phenyl}-benzamide] | > 10 µg/mL | 3 µg/mL (≈ 6.47 µM) |  | 5 µg/mL (≈ 10.8 µM) |  |  |  |  | 
4 | CN(C)c1ccc(NC(=S)Nc2ccc(NC(=O)c3ccccc3F)cc2)cc1Cl [Example 852, N-{4-[3-(3-Chloro-4-dimethylamino-phenyl)-thioureido]-phenyl}-2-fluoro-benzamide] |  | 4 µg/mL (≈ 9.03 µM) |  |  | 0.6 µg/mL (≈ 1.35 µM) |  |  | 80% | 6.5 µg/mL (≈ 14.7 µM)
5 | CC(=O)Nc1ccc(NC(=S)Nc2ccc(NC(=O)c3ccccc3F)cc2)cc1Cl [Example 397, N-{4-[3-(4-Acetylamino-3-chloro-phenyl)-thioureido]-phenyl}-2-fluoro-benzamide] |  | 5 µg/mL (≈ 10.9 µM) |  |  | 10 µg/mL (≈ 21.9 µM) |  |  | 35% | > 10 µg/mL
6 | Cc1ccc([C@@H](C)NC(=S)Nc2ccc(NC(=O)c3ccccc3F)cc2)cc1 [Example 1012, 2-Fluoro-N-{4-[3-((1R)-1-p-tolyl-ethyl)-thioureido]-phenyl}-benzamide] |  |  |  |  | 7.1 µg/mL (≈ 17.4 µM) | > 10 µg/mL | > 7.5 µg/mL |  | 
7 | CC(NC(=S)Nc1ccc(NC(=O)c2cc3ccccc3o2)cc1)c1ccc(Br)cc1 (stereo not drawn) [Example 982, Benzofuran-2-carboxylic acid (4-{3-[1-(4-bromo-phenyl)-ethyl]-thioureido}-phenyl)-amide] |  | > 10 µg/mL |  |  | 1.3 µg/mL (≈ 2.63 µM) |  |  |  | 0.1 µg/mL (≈ 0.202 µM)
8 | CC(NC(=S)Nc1ccc(NC(=O)c2ccccc2F)cc1)c1ccccc1Br (stereo not drawn) [Example 783, N-(4-{3-[1-(2-Bromo-phenyl)-ethyl]-thioureido}-phenyl)-2-fluoro-benzamide] |  |  |  |  | 1.1 µg/mL (≈ 2.33 µM) | > 10 µg/mL | 0.3 µg/mL (≈ 0.635 µM) |  | 
9 | CC(NC(=S)Nc1ccc(NC(=O)c2ccccc2F)cc1)c1cccc(Br)c1 (stereo not drawn) [Example 780, N-(4-{3-[1-(3-Bromo-phenyl)-ethyl]-thioureido}-phenyl)-2-fluoro-benzamide] |  |  |  |  | 1 µg/mL (≈ 2.12 µM) | > 10 µg/mL | 1.2 µg/mL (≈ 2.54 µM) |  | 
10 | CC(NC(=S)Nc1ccc(NC(=O)c2ccccc2F)cc1)c1ccccc1Cl (stereo not drawn) [Example 784, N-(4-{3-[1-(2-Chloro-phenyl)-ethyl]-thioureido}-phenyl)-2-fluoro-benzamide] |  |  |  |  | 1.1 µg/mL (≈ 2.57 µM) | > 10 µg/mL | 0.7 µg/mL (≈ 1.64 µM) |  | 
11 | COc1cc(OC)c(NC(=S)Nc2ccc(NC(=O)c3ccccc3)cc2)cc1Cl [Example 122, N-{4-[3-(5-Chloro-2,4-dimethoxy-phenyl)-thioureido]-phenyl}-benzamide] |  | 0.3 µg/mL (≈ 0.679 µM) |  |  | 4 µg/mL (≈ 9.05 µM) |  |  | 13% | > 10 µg/mL
12 | O=C(Nc1ccc(NC(=S)NCc2ccc(Cl)c(Cl)c2)cc1)c1ccccc1F [Example 538, N-{4-[3-(3,4-Dichloro-benzyl)-thioureido]-phenyl}-2-fluoro-benzamide] |  |  |  |  | > 10 µg/mL | > 10 µg/mL | 10 µg/mL (≈ 22.3 µM) |  | 
13 | Nc1ccc(F)cc1NC(=S)Nc1ccc(NC(=O)c2ccccc2F)cc1 [Example 1007, N-{4-[3-(2-Amino-5-fluoro-phenyl)-thioureido]-phenyl}-2-fluoro-benzamide] | > 10 µg/mL | 1.2 µg/mL (≈ 3.01 µM) |  | > 10 µg/mL |  |  |  |  | 
14 | O=C(O)c1cccc(NC(=S)Nc2ccc(NC(=O)c3ccccc3F)cc2)c1 [Example 963, 3-{3-[4-(2-Fluoro-benzoylamino)-phenyl]-thioureido}-benzoic acid] | > 10 µg/mL | > 10 µg/mL | 30% | > 10 µg/mL |  |  |  |  | 
15 | COc1ccc(C(=O)Nc2ccc(NC(=S)NC(C)c3ccc(F)cc3)cc2)cc1 (stereo not drawn) [Example 754, N-(4-{3-[1-(4-Fluoro-phenyl)-ethyl]-thioureido}-phenyl)-4-methoxy-benzamide] |  |  |  |  | > 10 µg/mL | > 10 µg/mL | 0.2 µg/mL (≈ 0.472 µM) |  | 
16 | COc1ccc(C(=O)Nc2ccc(NC(=S)Nc3cc(Cl)c(OC)cc3OC)cc2)cc1 [Example 121, N-{4-[3-(5-Chloro-2,4-dimethoxy-phenyl)-thioureido]-phenyl}-4-methoxy-benzamide] |  | 0.3 µg/mL (≈ 0.636 µM) |  |  | 6 µg/mL (≈ 12.7 µM) |  |  | 0% | > 10 µg/mL
17 | O=C(Nc1ccc(NC(=S)Nc2cc(Cl)ccc2O)cc1)c1ccccc1F [Example 1001, N-{4-[3-(5-Chloro-2-hydroxy-phenyl)-thioureido]-phenyl}-2-fluoro-benzamide] |  |  |  |  | 2.6 µg/mL (≈ 6.25 µM) | 4.3 µg/mL (≈ 10.3 µM) | 3.6 µg/mL (≈ 8.66 µM) |  | 
